These results are taken from ChEMBL document CHEMBL3871301, “Biotransformation of isofraxetin-6-O-β-d-glucopyranoside by Angelica sinensis (Oliv.) Diels callus” (Bioorg Med Chem Lett, 2017).

The IC50 is the concentration at which inhibition is half-maximal. A higher IC50 goes with weaker potency in that assay.

One data set in a line: cells. The settings on record: Mus musculus, BV-2, 24 h.
The species named for another data set is Mus musculus. Nature of the data set: Cytotoxicity against mouse BV2 cells assessed as reduction in cell viability at antineuroinflammatory IC50 after 24 hrs in presence of LPS by MTT assay. The data set is classed as toxicity, cell-based. The settings on record: bv-2, 24 h.

Description for cells: Antineuroinflammatory activity in mouse BV2 cells assessed as inhibition of LPS-induced NO production after 24 hrs in presence of LPS by Griess reaction based assay

On to `COc1cc2c(c(OC)c1OC)-c1c(cc(OC)c(OC)c1OC)C[C@@](C)(O)[C@@H](C)C2`, for which the IC50 in “cells” was greater than 100 µM.

For `COc1ccc(Cc2ccc(OC)cc2)cc1`, the 50% inhibitory concentration (IC50) in “cells” came out at 1.22 µM. The Activity result in the data set listed under Mus musculus is given as “Non-Toxic”.

In the data set “cells”, `COC(=O)Nc1ccc(C)c(NC(=O)OC)c1` came in with an IC50 of 10.6 µM. The Activity result in the data set filed under Mus musculus is “Non-Toxic”.

Compound `NC(=O)Cc1ccccc1` registered a concentration for half-maximal inhibition (IC50) in “cells” greater than 100 µM.

The compound `COc1cc2oc(=O)ccc2c(O)c1O` registered a half-inhibitory concentration (IC50) in the data set “cells” greater than 100 µM.

`COc1cc([C@@H]2COc3c(c(OC)cc4ccc(=O)oc34)O2)ccc1O`: the half-inhibitory concentration (IC50) in “cells” was greater than 100 µM.

In turn, `COc1cc2ccc(=O)oc2c(OC)c1O` registered an IC50 in “cells” greater than 100 µM.

In the case of `O=Cc1c[nH]c2ccccc12` [3-FORMYLINDOLE], the IC50 in “cells” is 0.76 µM. The Activity result in the data set filed under Mus musculus is recorded as “Non-Toxic”.

As for `COc1cc([C@H]2Oc3c(OC)cc4ccc(=O)oc4c3O[C@@H]2CO)ccc1O` [CLEOMISCOSIN A], in “cells”, the IC50 was greater than 100 µM.

In the data set “cells”, `CN(C)c1ccc(O)c2c1C[C@H]1C[C@H]3[C@H](N(C)C)C(O)=C(C(N)=O)C(=O)[C@@]3(O)C(O)=C1C2=O` [MINOCYCLINE] came in with an IC50 of 35.8 µM.

As for `O=c1cc[nH]c(=O)[nH]1` [URACIL], the IC50 in “cells” is greater than 100 µM.

In turn, `COc1cc2c(c(OC)c1OC)-c1c(cc3c(c1OC)OCO3)C[C@H](C)[C@H](C)C2` [WUWEIZISU B] returned a half-maximal inhibitory concentration (IC50) in the data set “cells” greater than 100 µM.
